Reference: EP0596057B1, “QUINUCLIDINE DERIVATIVES AS SQUALENE SYNTHASE INHIBITORS” (priority 1992, dated 1993)

What was measured:
Squalene synthase = molecular target: T1, Squalene synthase (Rattus norvegicus, UniProt Q02769); test: Inhibition of Squalene synthase (formation of squalene from tritiated farnesyl pyrophosphate, rat liver microsomal protein); type: biochemical; conditions: substrate 1-[3H]-farnesyl pyrophosphate 20µM, 37°C, 15 minutes, read-out: IC50 (concentration which results in a 50% inhibition of squalene production)
T1 construct: from tissue; host or cells: rat liver microsomes
T1 sequence (Q02769 1-416): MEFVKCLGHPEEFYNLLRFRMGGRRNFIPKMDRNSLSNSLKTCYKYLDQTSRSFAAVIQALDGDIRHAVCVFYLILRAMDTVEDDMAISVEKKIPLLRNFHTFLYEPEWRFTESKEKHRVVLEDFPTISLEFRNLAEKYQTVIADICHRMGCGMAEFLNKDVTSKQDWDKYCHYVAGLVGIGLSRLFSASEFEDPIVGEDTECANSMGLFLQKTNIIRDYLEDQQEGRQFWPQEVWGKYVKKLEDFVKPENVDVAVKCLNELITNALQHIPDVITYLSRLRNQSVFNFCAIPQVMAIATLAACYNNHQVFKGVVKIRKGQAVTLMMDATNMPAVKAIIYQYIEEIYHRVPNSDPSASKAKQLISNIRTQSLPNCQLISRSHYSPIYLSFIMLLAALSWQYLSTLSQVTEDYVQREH
Experimental: In this test, the ability of a compound to prevent the formation of squalene from a radioactive substrate (tritiated farnesyl pyrophosphate) is assessed.
The test compound is incubated at a concentration of 25 micromolar in 200µl of a buffered solution containing potassium phosphate (50mM), MgCl2 (4.95mM), KF (9.9mM), NADPH (0.9mM) and rat liver microsomal protein (20µg). Rat liver microsomes are prepared by the method described in published European Patent Application No. 324,421 and stored in liquid nitrogen prior to assay. Assay vials are kept at 37°C throughout the incubation.
The reaction is started with the addition of the substrate (1-[^3H]-farnesyl pyrophosphate), final concentration 20µM, and stopped after 15 minutes reaction time with the addition of 50µl of 4% KOH. The reaction products are separated from unreacted substrate after application to a C-18 octadecyl lccBond column (Analytichem Int product No. 617101). An aqueous fraction is eluted with 250µl of 0.1M KOH. Squalene is then eluted with 1.0 ml 10% ethylacetate in hexane and radioactivity determined. The difference in radioactivity in the presence and absence of the test compound is used to determine the level of inhibition. […]

[1] = tested on: de novo hepatic cholesterol synthesis; test: Acute rat cholesterol synthesis assay (de novo hepatic cholesterol synthesis from 14C-acetate); type: in vivo; conditions: female rats, [2-14C]-acetate ip 1 hour after compound, plasma sampled after a further hour, route not stated
Experimental: This is an acute in vivo test in the rat to measure de novo hepatic cholesterol synthesis from exogenously administered ^14C-acetate.
Female rats (35 - 55 g) are housed in reverse lighting conditions (red light from 0200h - 1400h) for a period of about 2 weeks prior to test. Animals are allowed free access to chow and drinking water throughout this period. At test, animals should weigh 125 - 150 g.
Test compounds may be administered by oral gavage, dissolved or suspended in 0.5% polysorbate, or by ip or iv dosing. Control animals receive vehicle alone. After 1 hour the rats are injected ip with 25µCi [2-^14C]-acetate (NEN DUPONT. specific activity, 45-60mCi/mmol NEC-085H, or AMERSHAM specific activity, 50-60mCi/mmol CFA 14) in a volume of 0.25 ml saline (100µCi/ml). After a further hour a blood sample was obtained from the abdominal vena cava under terminal halothane anaesthesia.
1ml of plasma is lyophilised and then saponified in 2ml ethanolic KOH (1 part 33% KOH, 9 parts ethanol) at 75°C for 2 hours. After addition of an equal quantity of water, non-saponifiable lipids are extracted with […] 5ml volumes of hexane. The hexane extracts are evaporated to dryness and the residues dissolved in ethanol to determine cholesterol specific radioactivity. ED50 values can be determined in the standard way.

SMILES | IC50 (Squalene synthase) [nM] | ED50 [1] [mg/kg]
OC1(c2ccc(COc3ccccc3)cc2)CN2CCC1CC2 (centres unmarked) [Example 2, 3-(4-phenoxymethylphenyl)-quinuclidin-3-ol] | 30 | –
OC1(c2ccc(C#Cc3ccccc3)cc2)CN2CCC1CC2 (centres unmarked) [Example 4, 3-(4-phenylethyn-2-ylphenyl)quinuclidin-3-ol] | – | 29
